# Positions of bridges follow the written chain, without caps; N, C: chain ends. Non-standard residues stand in square brackets, D forms with d. Residues, ends and D or L forms follow the SMILES beside them. ξ: configuration not given here. *: point of attachment. Phe(2,4-F2) = N[C@@H](Cc1ccc(F)cc1F)C(=O)O; Phe(3-Br) = N[C@@H](Cc1cccc(Br)c1)C(=O)O; 2Nal = N[C@@H](Cc1ccc2ccccc2c1)C(=O)O; Ahp(2) = CCCCC[C@H](N)C(=O)O; NMeNle = CCCC[C@H](NC)C(=O)O; Tle = CC(C)(C)[C@H](N)C(=O)O; NHexGly = CCCCCCNCC(=O)O; Nle = CCCC[C@H](N)C(=O)O; Orn = NCCC[C@H](N)C(=O)O; ξS = NC(CO)C(=O)O; Allyl = C=CC*
# Biological target: T1, mouse VISTA (mVISTA) (Mus musculus, UniProt Q9D659)
# T1 construct: expressed in transfected cells; host or cells: Human embryonic kidney 293T cells
# T1 sequence (Q9D659 33-308): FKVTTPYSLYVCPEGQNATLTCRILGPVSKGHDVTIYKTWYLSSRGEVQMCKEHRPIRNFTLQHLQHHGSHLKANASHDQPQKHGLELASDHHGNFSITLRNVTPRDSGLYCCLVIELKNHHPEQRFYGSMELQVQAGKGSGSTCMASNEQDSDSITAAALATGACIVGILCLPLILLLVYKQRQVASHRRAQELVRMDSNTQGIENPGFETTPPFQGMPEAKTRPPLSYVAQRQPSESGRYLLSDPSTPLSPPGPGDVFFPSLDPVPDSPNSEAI
# Assay: Cell-Based Binding High-Content Assay For mVISTA (HC CBA mVISTA)
# Settings: cell-based binding high-content assay, mVISTA; the 15th table; read-out: HC CBA mVISTA IC50
# Outline: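 This high-content binding assay uses HEK293T cells expressing murine VISTA, measuring displacement of 2 nM biotinylated peptide by fluorescent streptavidin imaging. IC50 values come from four-parameter logistic fitting.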
row,IC50,SMILES
1,14.4 nM,CCCCCCN1CC(=O)N[C@@H](Cc2ccc(O)cc2)C(=O)N[C@@H](CCCC)C(=O)N[C@@H](CC(=O)O)C(=O)N[C@@H](CCCNC(=N)N)C(=O)N[C@@H](CC(C)C)C(=O)N[C@@H](CCCCC)C(=O)N2CCC[C@H]2C(=O)N[C@@H](C(C)C)C(=O)N[C@@H](CC(=O)O)C(=O)N[C@H](C(=O)N[C@@H](CC(=O)O)C(N)=O)CSCC(=O)N[C@@H](Cc2ccc3ccccc3c2)C(=O)N[C@@H](Cc2c[nH]c3ccccc23)C(=O)N[C@@H](CC(=O)O)C1=O [compound 1226] ({CH2CO}-[2Nal]WD[NHexGly]Y[Nle]DRL[Ahp(2)]PVDCD-NH2; thioether N-14)
2,32.2 nM,CCCCCCN1CC(=O)N[C@@H](Cc2ccc(O)cc2)C(=O)N[C@@H](CCCC)C(=O)N[C@@H](CC(=O)O)C(=O)N[C@@H](CCCN)C(=O)N[C@@H](CC(C)C)C(=O)N[C@@H](CCCCC)C(=O)N2CCC[C@H]2C(=O)N[C@@H](C(C)C)C(=O)N[C@@H](CC(=O)O)C(=O)N[C@H](C(=O)N[C@@H](CC(=O)O)C(N)=O)CSCC(=O)N[C@@H](Cc2ccc3ccccc3c2)C(=O)N[C@@H](Cc2c[nH]c3ccccc23)C(=O)N[C@@H](CC(=O)O)C1=O [compound 1227] ({CH2CO}-[2Nal]WD[NHexGly]Y[Nle]D[Orn]L[Ahp(2)]PVDCD-NH2; thioether N-14)
3,27.1 nM,CCCCCCN1CC(=O)N[C@@H](Cc2ccc(O)cc2)C(=O)N[C@@H](C(C)C)C(=O)NCC(=O)N[C@@H](CCCNC(=N)N)C(=O)N[C@@H](CC(C)C)C(=O)N[C@@H](CCCCC)C(=O)N2CCC[C@H]2C(=O)N[C@@H](C(C)C)C(=O)N[C@@H](CC(=O)O)C(=O)N[C@H](C(=O)NCC(N)=O)CSCC(=O)N[C@@H](Cc2ccc3ccccc3c2)C(=O)N[C@@H](Cc2c[nH]c3ccccc23)C(=O)N[C@@H](CC(=O)O)C1=O [compound 1228] ({CH2CO}-[2Nal]WD[NHexGly]YVGRL[Ahp(2)]PVDCG-NH2; thioether N-14)
4,13.2 nM,CCCCCCN1CC(=O)N[C@@H](Cc2ccc(O)cc2)C(=O)N[C@@H](CCCC)C(=O)N[C@@H](CC(N)=O)C(=O)N[C@@H](CCCNC(=N)N)C(=O)N[C@@H](CC(C)C)C(=O)N[C@@H](CCCCC)C(=O)N2CCC[C@H]2C(=O)N[C@@H](C(C)C)C(=O)N[C@@H](CC(=O)O)C(=O)N[C@H](C(=O)NCC(=O)O)CSCC(=O)N[C@@H](Cc2ccc3ccccc3c2)C(=O)N[C@@H](Cc2c[nH]c3ccccc23)C(=O)N[C@@H](CC(=O)O)C1=O [compound 1229] ({CH2CO}-[2Nal]WD[NHexGly]Y[Nle]NRL[Ahp(2)]PVDCG-OH; thioether N-14)
5,5.7 nM,CCCCCCN1CC(=O)N[C@@H](Cc2ccc(O)cc2)C(=O)N[C@@H](C(C)C)C(=O)NCC(=O)N[C@@H](CCCNC(=N)N)C(=O)N[C@@H](CC(C)C)C(=O)N[C@@H](CCCCC)C(=O)N2CCC[C@H]2C(=O)N[C@@H](C(C)C)C(=O)N[C@@H](CCCNC(=N)N)C(=O)N[C@H](C(=O)NCC(=O)O)CSCC(=O)N[C@@H](Cc2ccc3ccccc3c2)C(=O)N[C@@H](Cc2c[nH]c3ccccc23)C(=O)N[C@@H](CC(=O)O)C1=O [compound 1230] ({CH2CO}-[2Nal]WD[NHexGly]YVGRL[Ahp(2)]PVRCG-OH; thioether N-14)

# Same assay, conditions: read-out: HC CBA mVISTA IC50
row,IC50,SMILES
1,12.9 nM,"CCCCCCN1CC(=O)N[C@@H](Cc2ccc(O)cc2)C(=O)N[C@@H](CCCCC)C(=O)N[C@@H](CC(N)=O)C(=O)N[C@@H](CCCNC(=N)N)C(=O)N(C)[C@@H](CCCC)C(=O)N[C@@H](CCCCC)C(=O)N2CCC[C@H]2C(=O)N[C@@H](C(C)C)C(=O)N[C@@H](CC(=O)O)C(=O)N[C@H](C(=O)NCC(=O)O)CSCC(=O)N[C@@H](Cc2ccc(F)cc2F)C(=O)N[C@@H](Cc2ccc(F)cc2F)C(=O)N[C@@H](CC(=O)O)C1=O [compound 1216] ({CH2CO}-[Phe(2,4-F2)][Phe(2,4-F2)]D[NHexGly]Y[Ahp(2)]NR[NMeNle][Ahp(2)]PVDCG-OH; thioether N-14)"
2,16.2 nM,"CCCCCCN1CC(=O)N[C@@H](Cc2ccc(O)cc2)C(=O)N[C@@H](CCCCC)C(=O)N[C@@H](CC(N)=O)C(=O)N[C@@H](CCCNC(=N)N)C(=O)N(C)[C@@H](CCCC)C(=O)N[C@@H](CCCCC)C(=O)N2CCC[C@H]2C(=O)N[C@@H](C(C)C)C(=O)N[C@@H](C(C)C)C(=O)N[C@H](C(=O)NCC(=O)O)CSCC(=O)N[C@@H](Cc2ccc(F)cc2F)C(=O)N[C@@H](Cc2ccc(F)cc2F)C(=O)N[C@@H](CC(=O)O)C1=O [compound 1217] ({CH2CO}-[Phe(2,4-F2)][Phe(2,4-F2)]D[NHexGly]Y[Ahp(2)]NR[NMeNle][Ahp(2)]PVVCG-OH; thioether N-14)"
3,23.6 nM,"CCCCCCN1CC(=O)N[C@@H](Cc2ccc(O)cc2)C(=O)N[C@@H](CCCCC)C(=O)N[C@@H](CC(N)=O)C(=O)N[C@@H](CCCNC(=N)N)C(=O)N(C)[C@@H](CCCC)C(=O)N[C@@H](CCCCC)C(=O)N2CCC[C@H]2C(=O)N[C@@H](C(C)C)C(=O)N[C@@H](CC(=O)O)C(=O)N[C@H](C(=O)NC(CO)C(=O)O)CSCC(=O)N[C@@H](Cc2ccc(F)cc2F)C(=O)N[C@@H](Cc2ccc(F)cc2F)C(=O)N[C@@H](CC(=O)O)C1=O (stereo partly drawn) [compound 1218] ({CH2CO}-[Phe(2,4-F2)][Phe(2,4-F2)]D[NHexGly]Y[Ahp(2)]NR[NMeNle][Ahp(2)]PVDC[ξS]-OH; thioether N-14)"
4,33.9 nM,"CCCCCCN1CC(=O)N[C@@H](Cc2ccc(O)cc2)C(=O)N[C@@H](CCCCC)C(=O)N[C@@H](CC(N)=O)C(=O)N[C@@H](CCCNC(=N)N)C(=O)N(C)[C@@H](CCCC)C(=O)N[C@@H](CCCCC)C(=O)N2CCC[C@H]2C(=O)N[C@@H](C(C)C)C(=O)N[C@@H](C(C)C)C(=O)N[C@H](C(=O)NC(CO)C(=O)O)CSCC(=O)N[C@@H](Cc2ccc(F)cc2F)C(=O)N[C@@H](Cc2ccc(F)cc2F)C(=O)N[C@@H](CC(=O)O)C1=O (stereo partly drawn) [compound 1219] ({CH2CO}-[Phe(2,4-F2)][Phe(2,4-F2)]D[NHexGly]Y[Ahp(2)]NR[NMeNle][Ahp(2)]PVVC[ξS]-OH; thioether N-14)"
5,24.7 nM,"CCCCCCN1CC(=O)N[C@@H](Cc2ccc(O)cc2)C(=O)N[C@@H](CCCCC)C(=O)N[C@@H](CC(N)=O)C(=O)N[C@@H](CCCNC(=N)N)C(=O)N(C)[C@@H](CCCC)C(=O)N[C@@H](CCCCC)C(=O)N2CCC[C@H]2C(=O)N[C@@H](C(C)C)C(=O)N[C@@H](C(C)C)C(=O)N[C@H](C(=O)NCC(=O)O)CSCC(=O)N[C@@H](Cc2ccc(F)cc2F)C(=O)N[C@@H](Cc2c[nH]c3ccccc23)C(=O)N[C@@H](CC(=O)O)C1=O [compound 1220] ({CH2CO}-[Phe(2,4-F2)]WD[NHexGly]Y[Ahp(2)]NR[NMeNle][Ahp(2)]PVVCG-OH; thioether N-14)"
6,20.3 nM,"CCCCCCN1CC(=O)N[C@@H](Cc2ccc(O)cc2)C(=O)N[C@@H](CCCCC)C(=O)N[C@@H](CC(N)=O)C(=O)N[C@@H](CCCNC(=N)N)C(=O)N(C)[C@@H](CCCC)C(=O)N[C@@H](CCCCC)C(=O)N2CCC[C@H]2C(=O)N[C@@H](C(C)C)C(=O)N[C@@H](C(C)C)C(=O)N[C@H](C(=O)NC(CO)C(=O)O)CSCC(=O)N[C@@H](Cc2ccc(F)cc2F)C(=O)N[C@@H](Cc2c[nH]c3ccccc23)C(=O)N[C@@H](CC(=O)O)C1=O (stereo partly drawn) [compound 1221] ({CH2CO}-[Phe(2,4-F2)]WD[NHexGly]Y[Ahp(2)]NR[NMeNle][Ahp(2)]PVVC[ξS]-OH; thioether N-14)"
7,21.7 nM,C=CCOc1ccc(C[C@@H]2NC(=O)CSC[C@@H](C(=O)NCC(N)=O)NC(=O)[C@H](CO)NC(=O)[C@H](C(C)C)NC(=O)[C@@H]3CCCN3C(=O)[C@H](CCCCC)NC(=O)[C@H](CCCC)N(C)C(=O)[C@H](CCCNC(=N)N)NC(=O)[C@H](CC(N)=O)NC(=O)[C@H](CC(C)C)NC(=O)[C@H](Cc3ccc(O)cc3)NC(=O)CN(CCCCCC)C(=O)[C@H](CC(=O)O)NC(=O)[C@H](Cc3ccc(O)cc3)NC2=O)cc1 [compound 1222] ({CH2CO}-Y(Allyl)YD[NHexGly]YLNR[NMeNle][Ahp(2)]PVSCG-NH2; thioether N-14)
8,22.6 nM,CCCCCCN1CC(=O)N[C@@H](Cc2ccc(O)cc2)C(=O)N[C@@H](CC(C)C)C(=O)N[C@@H](CC(N)=O)C(=O)N[C@@H](CCCNC(=N)N)C(=O)N(C)[C@@H](CCCC)C(=O)N[C@@H](CCCCC)C(=O)N2CCC[C@H]2C(=O)N[C@@H](C(C)C)C(=O)N[C@@H](CO)C(=O)N[C@H](C(=O)NCC(N)=O)CSCC(=O)N[C@@H](Cc2cccc(Br)c2)C(=O)N[C@@H](Cc2ccc(O)cc2)C(=O)N[C@@H](CC(=O)O)C1=O [compound 1224] ({CH2CO}-[Phe(3-Br)]YD[NHexGly]YLNR[NMeNle][Ahp(2)]PVSCG-NH2; thioether N-14)

row,SMILES,IC50
1,C=CCOc1ccc(C[C@@H]2NC(=O)CSC[C@@H](C(=O)NCC(N)=O)NC(=O)[C@H](CO)NC(=O)[C@H](C(C)(C)C)NC(=O)[C@@H]3CCCN3C(=O)[C@H](CCCCC)NC(=O)[C@H](CCCC)N(C)C(=O)[C@H](CCCNC(=N)N)NC(=O)[C@H](CC(N)=O)NC(=O)[C@H](CC(C)C)NC(=O)[C@H](Cc3ccc(O)cc3)NC(=O)CN(CCCCCC)C(=O)[C@H](CC(=O)O)NC(=O)[C@H](Cc3ccc(O)cc3)NC2=O)cc1 [compound 1223] ({CH2CO}-Y(Allyl)YD[NHexGly]YLNR[NMeNle][Ahp(2)]P[Tle]SCG-NH2; thioether N-14),18.1 nM
2,CCCCCCN1CC(=O)N[C@@H](Cc2ccc(O)cc2)C(=O)N[C@@H](CC(C)C)C(=O)N[C@@H](CC(N)=O)C(=O)N[C@@H](CCCNC(=N)N)C(=O)N(C)[C@@H](CCCC)C(=O)N[C@@H](CCCCC)C(=O)N2CCC[C@H]2C(=O)N[C@@H](C(C)(C)C)C(=O)N[C@@H](CO)C(=O)N[C@H](C(=O)NCC(N)=O)CSCC(=O)N[C@@H](Cc2cccc(Br)c2)C(=O)N[C@@H](Cc2ccc(O)cc2)C(=O)N[C@@H](CC(=O)O)C1=O [compound 1225] ({CH2CO}-[Phe(3-Br)]YD[NHexGly]YLNR[NMeNle][Ahp(2)]P[Tle]SCG-NH2; thioether N-14),31.2 nM

# Source: patent publication US20240218022A1, “ANTI-VISTA MACROCYCLIC PEPTIDES AND COMPOSITIONS” (BRISTOL-MYERS SQUIBB COMPANY, priority 2022, published 2024)
